Test results published in patent US8524725B2, “Methods of using diaminopyrimidine as P2X3 and P2X⅔ receptor modulators for treatment of respiratory and gastrointestinal diseases” (Roche Palo Alto LLC, priority 2005, dated 2013).
Structures can show the parent of a compound that is named as a salt.

**Q.** Which melting point does the source give for `COc1cc(Cc2cnc(NCCO)nc2N)c(C(C)C)cc1OC` (as salt: HCl) here?
**A.** > 300 °C

**Q.** Which melting point does the source give for `COc1cc(C(C)C)c(Oc2cnc(N[C@H](C)CO)nc2N)cc1Cl` (as salt: hydrochloride) here?
**A.** 111.4 to 116.9 °C

**Q.** Which melting point does the source give for `COc1cc(C(C)C)c(Oc2cnc(N)nc2N)cc1Cl` (as salt: trifluoroacetic acid salt) here?
**A.** 135 to 138.5 °C

**Q.** For `CNC(=O)OC[C@@H](C)Nc1ncc(Oc2cc(Cl)c(OC)cc2C(C)C)c(N)n1` (stereo in doubt), which melting point is on record?
**A.** 63.5 to 69.4 °C
